“And” between values parts separate entries of the source, which are not always exact repeats. Equal values may be shown once. Read-outs that look alike come from different tables or passages of the source.
Target: T1, GLUT1 (Homo sapiens, UniProt P11166)
T1 sequence (P11166 1-492): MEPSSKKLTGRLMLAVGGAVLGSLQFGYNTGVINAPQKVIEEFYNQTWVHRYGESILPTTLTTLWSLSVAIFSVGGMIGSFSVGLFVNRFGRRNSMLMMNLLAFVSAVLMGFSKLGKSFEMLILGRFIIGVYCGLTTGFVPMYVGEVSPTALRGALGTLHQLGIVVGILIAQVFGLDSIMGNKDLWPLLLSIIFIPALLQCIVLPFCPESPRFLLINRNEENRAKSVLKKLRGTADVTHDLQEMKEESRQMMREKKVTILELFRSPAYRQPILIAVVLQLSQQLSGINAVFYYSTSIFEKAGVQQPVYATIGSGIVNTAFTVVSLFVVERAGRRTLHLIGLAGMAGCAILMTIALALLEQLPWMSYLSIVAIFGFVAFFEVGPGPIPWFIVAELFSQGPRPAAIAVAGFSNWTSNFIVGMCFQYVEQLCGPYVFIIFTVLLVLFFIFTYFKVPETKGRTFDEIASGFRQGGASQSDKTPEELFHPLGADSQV
Assay type: binding
Conditions: for β (cooperativity parameter, second inhibitor molecule) / γ (hetero-cooperativity parameter) / Inhibition (type of modulation of CB binding) / Ki: 50 nM [3H]-CB; for β (cooperativity parameter, second inhibitor molecule) / γ (hetero-cooperativity parameter) / Ki: 4°C; for β (cooperativity parameter, second inhibitor molecule) / γ (hetero-cooperativity parameter): eqn 6; for Inhibition (type of modulation of CB binding): competing ligand 0 to 100 μM; for ΔG°: calculated as RT ln(1/KI); for ΔΔG°: change in ΔG° relative to baseline cytochalasin or forskolin; for β*γ: product; for Kd: rounded values; for Ki: eqn 6, iterative free [I]

[1] = read-out: KL (Table 3, taken from Table 1), forskolins
[2] = read-out: Ki (affinity of unoccupied GLUT1 for ligand)
[3] = read-out: KL (Table 2, taken from Table 1), cytochalasins

Structure (SMILES): C=C[C@@]1(C)CC(=O)[C@]2(O)[C@@]3(C)[C@@H](O)CCC(C)(C)[C@@H]3[C@H](O)[C@H](O)[C@@]2(C)O1 [7DeAFSK, 7-deacetyl-forskolin]
- β (cooperativity parameter, second inhibitor molecule): ∞
- γ (hetero-cooperativity parameter): 0.450 ± 0.008
- γ (hetero-cooperativity parameter) (listed as 7DeA-FSK): 0.45 ± 0.01 and 0.45
- Inhibition (type of modulation of CB binding): 4
- ΔG°: -11.02 kcal/mol
- ΔΔG°: -4.07 kcal/mol
- β*γ: ∞
- Kd [1]: 2 nM
- Ki [2]: 2 ± 2 nM

Structure (SMILES): C=C[C@@]1(C)CC(=O)[C@]2(O)[C@@]3(C)[C@@H](O)CCC(C)(C)[C@@H]3[C@H](O)[C@H](OC(=O)CF)[C@@]2(C)O1 [7FAFSK, 7-fluoroacetyl-forskolin]
- β (cooperativity parameter, second inhibitor molecule): 45.3 ± 5.0
- γ (hetero-cooperativity parameter): 0.475 ± 0.010
- β (cooperativity parameter, second inhibitor molecule) (listed as 7FA-FSK): 45
- γ (hetero-cooperativity parameter) (listed as 7FA-FSK): 0.48
- Inhibition (type of modulation of CB binding): 2
- ΔG°: -7.86 kcal/mol
- ΔΔG°: -0.91 kcal/mol
- β*γ: 22
- Kd [1]: 630 nM
- Ki [2]: 629 ± 0.644 nM

Structure (SMILES): C=C[C@@]1(C)CC(=O)[C@]2(O)[C@@]3(C)CCCC(C)(C)[C@@H]3[C@H](O)[C@H](OC(C)=O)[C@@]2(C)O1 [1DOFSK, 1-deoxy-forskolin]
- β (cooperativity parameter, second inhibitor molecule): 22179 ± 5104
- γ (hetero-cooperativity parameter): 0.438 ± 0.017
- β (cooperativity parameter, second inhibitor molecule) (listed as 1DO-FSK): 22,179 ± 5,104
- β (cooperativity parameter, second inhibitor molecule) (listed as 1DeO-FSK): 22000
- γ (hetero-cooperativity parameter) (listed as 1DeO-FSK): 0.44
- Inhibition (type of modulation of CB binding): 2
- ΔG°: -11.41 kcal/mol
- ΔΔG°: -4.46 kcal/mol
- β*γ: 9714
- Kd [1]: 1 nM
- Ki [2]: 1 ± 0.7 nM

Structure (SMILES): C=C1[C@@H](C)[C@H]2[C@H](Cc3ccccc3)NC(=O)[C@]23[C@H](OC(C)=O)/C=C/[C@@](C)(O)C(=O)[C@@H](C)C/C=C/[C@H]3[C@@H]1O [CCD, Cytochalasin D]
- β (cooperativity parameter, second inhibitor molecule): 101 ± 61
- γ (hetero-cooperativity parameter): 0.557 ± 0.019
- β (cooperativity parameter, second inhibitor molecule) (listed as CD): 101
- γ (hetero-cooperativity parameter) (listed as CD): 0.56
- Inhibition (type of modulation of CB binding): 3
- Kd (KL (Table 2, taken from Table 1), cytochalasins): 2000 nM
- Ki (Ki (affinity of unoccupied GLUT1 for ligand)): 1970 ± 98 nM
- ΔG°: -7.23 kcal/mol
- ΔΔG°: 1.65 kcal/mol
- β*γ: 51

Structure (SMILES): CC(=O)O[C@@H]1/C=C\[C@@](C)(O)C(=O)[C@@H](C)C/C=C\[C@H]2[C@H](O)C(C)=C(C)[C@H]3C(Cc4ccccc4)NC(=O)[C@]132 (stereo partly shown) [CCC, Cytochalasin C]
- β (cooperativity parameter, second inhibitor molecule): ∞
- γ (hetero-cooperativity parameter): 0.433 ± 0.003
- γ (hetero-cooperativity parameter) (listed as CC): 0.43
- Inhibition (type of modulation of CB binding): 4
- ΔG°: -7.35 kcal/mol
- ΔΔG°: 1.53 kcal/mol
- β*γ: ∞
- Kd [3]: 1600 nM
- Ki [2]: 1590 ± 431 nM

Structure (SMILES): C=C1[C@@H](C)[C@H]2[C@H](Cc3ccccc3)NC(=O)[C@]23OC(=O)/C=C/C(=O)CCC[C@@H](C)C/C=C/[C@H]3[C@@H]1O [CCA, Cytochalasin A]
- β (cooperativity parameter, second inhibitor molecule): 1.11 ± 0.17
- γ (hetero-cooperativity parameter): 0.374 ± 0.052
- β (cooperativity parameter, second inhibitor molecule) (listed as CA): 1.11
- γ (hetero-cooperativity parameter) (listed as CA): 0.38
- Inhibition (type of modulation of CB binding): 2
- ΔG°: -7.72 kcal/mol
- ΔΔG°: 1.17 kcal/mol
- β*γ: 0.42
- Kd [3]: 820 nM
- Ki [2]: 815 ± 96 nM

Structure (SMILES): C=C[C@@]1(C)CC(=O)[C@]2(O)[C@@]3(C)[C@@H](OC(C)=O)CCC(C)(C)[C@@H]3[C@H](O)[C@H](OC(C)=O)[C@@]2(C)O1 [1AFSK, 1-acetyl-forskolin]
- β (cooperativity parameter, second inhibitor molecule): 11923 ± 8441
- γ (hetero-cooperativity parameter): 0.440 ± 0.008
- β (cooperativity parameter, second inhibitor molecule) (listed as 1A-FSK): 11923
- γ (hetero-cooperativity parameter) (listed as 1A-FSK): 0.44
- Inhibition (type of modulation of CB binding): 2
- ΔG°: -10.80 kcal/mol
- ΔΔG°: -3.85 kcal/mol
- β*γ: 5246
- Kd [1]: 3 nM
- Ki [2]: 3 ± 2 nM

Structure (SMILES): CC[C@@]1(C)CC(=O)[C@@]2(O)[C@]3(C)[C@H](O)CCC(C)(C)[C@H]3[C@@H](O)[C@@H](OC(C)=O)[C@]2(C)O1 [14.15DiHFSK, 14,15-dihydro-forskolin]
- β (cooperativity parameter, second inhibitor molecule): 242.7 ± 140
- γ (hetero-cooperativity parameter): 0.571 ± 0.015
- β (cooperativity parameter, second inhibitor molecule) (listed as 14,15DiH-FSK): 243
- γ (hetero-cooperativity parameter) (listed as 14,15DiH-FSK): 0.6
- Inhibition (type of modulation of CB binding): 1
- ΔG°: -9.55 kcal/mol
- ΔΔG°: -2.60 kcal/mol
- β*γ: 139
- Kd [1]: 30 nM
- Ki [2]: 29.1 ± 17 nM

Structure (SMILES): C=C[C@@]1(C)CC(=O)[C@H]2[C@](C)(O1)[C@@H](OC(C)=O)[C@@H](O)[C@H]1C(C)(C)CC[C@H](O)[C@@]12C [9DOFSK, 9-deoxy-forskolin]
- β (cooperativity parameter, second inhibitor molecule): 120.3 ± 12.3
- γ (hetero-cooperativity parameter): 0.464 ± 0.016
- β (cooperativity parameter, second inhibitor molecule) (listed as 9DeO-FSK): 120
- γ (hetero-cooperativity parameter) (listed as 9DeO-FSK): 0.46
- Inhibition (type of modulation of CB binding): 2
- ΔG°: -8.07 kcal/mol
- ΔΔG°: -1.12 kcal/mol
- β*γ: 56
- Kd [1]: 430 nM
- Ki [2]: 430 ± 75 nM

Structure (SMILES): C=C[C@@]1(C)CC(=O)[C@]2(O)[C@@]3(C)[C@@H](O)CCC(C)(C)[C@@H]3[C@H](OC(C)=O)[C@H](O)[C@@]2(C)O1 [6A7DeAFSK, 6-acetyl, 7-deacetyl-forskolin]
- Inhibition (type of modulation of CB binding): 5

Structure (SMILES): C=C1[C@@H](C)[C@H]2[C@H](Cc3ccccc3)NC(=O)[C@]23[C@H](O)/C=C/[C@](C)(O)C[C@@H](C)C/C=C/[C@H]3[C@@H]1O [CCJ, Cytochalasin J]
- β (cooperativity parameter, second inhibitor molecule): 6399 ± 347
- γ (hetero-cooperativity parameter): 0.635 ± 0.013
- Inhibition (type of modulation of CB binding): 3
- ΔG°: -10.04 kcal/mol
- ΔΔG°: -1.16 kcal/mol
- β*γ: 4063
- Ki [2]: 12 ± 1 nM

Structure (SMILES): C=C[C@@]1(C)CC(=O)[C@]2(O)[C@@]3(C)[C@@H](OC(C)=O)CCC(C)(C)[C@@H]3[C@H](OC(C)=O)[C@H](OC(C)=O)[C@@]2(C)O1 [1,6DiAFSK, 1,60diacetyl-forskolin]
- β (cooperativity parameter, second inhibitor molecule): 1480 ± 268
- γ (hetero-cooperativity parameter): 0.489 ± 0.017
- β (cooperativity parameter, second inhibitor molecule) (listed as 1,6DiA-FSK): 1500
- γ (hetero-cooperativity parameter) (listed as 1,6DiA-FSK): 0.49
- Inhibition (type of modulation of CB binding): 2
- ΔΔG°: 0.67 kcal/mol
- β*γ: 724
- Kd [1]: 11 nM

Structure (SMILES): C=C1[C@@H](C)[C@H]2[C@H](Cc3ccccc3)NC(=O)[C@]23[C@H](OC(C)=O)/C=C/[C@](C)(O)C[C@@H](C)C/C=C/[C@H]3[C@@H]1O [CCH, Cytochalasin H]
- β (cooperativity parameter, second inhibitor molecule): 249 ± 45
- γ (hetero-cooperativity parameter): 0.449 ± 0.019
- β (cooperativity parameter, second inhibitor molecule) (listed as CH): 249
- γ (hetero-cooperativity parameter) (listed as CH): 0.45
- Inhibition (type of modulation of CB binding): 2
- ΔG°: -8.88 kcal/mol
- ΔΔG°: 0.00 kcal/mol
- β*γ: 110
- Kd [3]: 100 nM
- Ki [2]: 98 ± 3 nM
